Among the data in patent publication US6451973B1, “Anilinopeptide derivatives” (Novatis AG, priority 1996, dated 2002) are melting point values, retold here.

As to `CC[C@H](C)[C@H](NC(=O)OC)C(=O)NN(Cc1ccc(N2CCCC2)cc1)C[C@H](O)[C@H](Cc1ccccc1)NC(=O)[C@@H](NC(=O)OC)C(C)(C)C` [Example 9, 1-[p-(Pyrrolidin-1-yl)phenyl]-4(S)-hydroxy-2-[N-(N-methoxycarbonyl-(L)-isoleucyl)amino]-5(S)-[N-(N-methoxycarbonyl-(L)-tert-leucyl)amino]-6-phenyl-2-azahexane], the melting point (usually the temperature, or range, at which the solid turns liquid) was in the range of 158 to 161 °C.
To `COC(=O)N[C@H](C(=O)N[C@@H](Cc1ccccc1)[C@@H](O)CN(Cc1ccc(N2CCCC2)cc1)NC(=O)[C@@H](NC(=O)OC)C(C)(C)C)C(C)C` [Example 11, 1-[p-(Pyrrolidin-1-yl)phenyl]-4(S)-hydroxy-2-[N-(N-methoxycarbonyl-(L)-tert-leucyl)amino]-5(S)-[N-(N-methoxycarbonyl-(L)-valyl)amino]-6-phenyl-2-azahexane] belongs 118 to 121 °C (dec.).
